The source of these data is patent US10160771B2, “Hepatitis C virus inhibitors and uses thereof in preparation of drugs” (priority 2014, dated 2018).

Molecules are shown by their SMILES.

The subject of data set [1] is HCV genotype 1a (HCV-1a) replicon cells. As to the kind of experiment: HCV genotype 1a replicon luciferase assay (EC50). Type of data set: cell-based, hepatitis C virus genotype 1a (H77 clone). Particulars: Hepatitis C virus, 72 h, 3 days, luciferase (Bright-Glo). The procedure, abridged:
(§1)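 EC50 by nonlinear fitting of % inhibition from Bright-Glo luciferase signal after 3-day, 37° C. compound exposure (5-fold, 6 points from 100, 10 or 1 nM; 0.5% DMSO; duplicates). Cells: 1a replicon from H77 (K1691R/K2040R/S2204I) or 1b from Con1 (E1202G/T1280I/K1846T), 8000 per well.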

In data set [2] the test system is HCV genotype 1b (HCV-1b) replicon cells. As to the kind of experiment: HCV genotype 1b replicon luciferase assay (EC50). Type of data set: cell-based, hepatitis C virus genotype 1b (Con1 clone). Particulars: Hepatitis C virus, 72 h, 3 days, luciferase (Bright-Glo). The procedure, abridged: as §1
Data set [3] in a line: Cell Titer-fluor cell activity assay in HCV-1b replicon cells (CC50). In kind it is cell-based. The procedure, abridged:
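CC50 derived by nonlinear fitting of inhibition % from Cell Titer-fluor signal (405/515 nm, 30 min). Cells: genotype 1b Con1 replicon carrying E1202G, T1280I, K1846T, seeded 8000/well with compound for 3 days, 37 °C, 0.5% DMSO; 6 points, 5-fold dilution, top 100, 10 or 1 nM, duplicates.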

As to `COC(=O)N[C@H](C(=O)N1CCC[C@H]1c1ncc(-c2ccc(-c3ccc(-c4cnc([C@H]5C6CCC(C6)[C@@H]5C(=O)NCc5cncc(C(C)C)c5)[nH]4)cc3)cc2)[nH]1)C(C)C` (stereo partly drawn) [AA_235_A], the results for the EC50 in data set [1] and in data set [2] were 10 to 100 nM and 0.001 to 0.1 nM, respectively. This compound showed a CC50 at 3 days in data set [3] of more than 1 nM.
On to `COC(=O)N[C@H](C(=O)N1CCC[C@H]1c1ncc(-c2ccc(-c3ccc(-c4cnc([C@H]5C6CCC(C6)[C@@H]5C(=O)NCc5ccc(C(C)C)nc5)[nH]4)cc3)cc2)[nH]1)C(C)C` (stereo partly drawn) [AA_236_A], for which the EC50 was 10 to 100 nM in data set [1] and 0.001 to 0.1 nM in data set [2]. Further, in data set [3], the 50% cytotoxic concentration (CC50) at 3 days is more than 1 nM.
The corresponding values for `COC(=O)N[C@H](C(=O)N1CCC[C@H]1c1ncc(-c2ccc(-c3ccc(-c4cnc([C@@H]5C6CCC(C6)[C@H]5C(=O)NCc5ccc(C(C)C)nc5)[nH]4)cc3)cc2)[nH]1)C(C)C` (stereo partly drawn) [AA_236_B] are 10 to 100 nM, 0.101 to 1 nM and more than 1 nM.
The corresponding values for `COC(=O)N[C@H](C(=O)N1CCC[C@H]1c1ncc(-c2ccc(-c3ccc(-c4cnc([C@H]5C6CCC(C6)[C@@H]5C(=O)Nc5ccccc5)[nH]4)cc3)cc2)[nH]1)C(C)C` (stereo partly drawn) [AA_237_A] are 10 to 100 nM, 0.101 to 1 nM and more than 1 nM.
In the case of `COC(=O)N[C@H](C(=O)N1CCC[C@H]1c1ncc(-c2ccc3c(c2)C(F)(F)c2cc(-c4cnc(C5C6CCC(C6)[C@H]5C(=O)NCc5cccnc5)[nH]4)ccc2-3)[nH]1)C(C)C` (stereo partly drawn) [AA_238], the figures for the EC50 in data set [1] and in data set [2] were 1 to 10 nM and 0.001 to 0.1 nM, respectively. The compound further yielded a CC50 at 3 days in data set [3] of more than 1 nM.
On to `COC(=O)N[C@H](C(=O)N1CCC[C@H]1c1ncc(-c2ccc3c(c2)C(=O)c2cc(-c4cnc(C5C6CCC(C6)[C@H]5C(=O)NCc5cccnc5)[nH]4)ccc2-3)[nH]1)C(C)C` (stereo partly drawn) [AA_239], for which the EC50 was 1 to 10 nM in data set [1] and 0.001 to 0.1 nM in data set [2]. In data set [3], this compound displayed a CC50 at 3 days of more than 1 nM.
As to `COC(=O)N[C@H](C(=O)N1CCC[C@H]1c1ncc(-c2ccc3c(c2)[C@@](C)(O)c2cc(-c4cnc(C5C6CCC(C6)[C@H]5C(=O)NCc5cccnc5)[nH]4)ccc2-3)[nH]1)C(C)C` (stereo partly drawn) [AA_241_A], the EC50 in data set [1] lay within 10 to 100 nM; in data set [2] it was 0.101 to 1 nM. In data set [3], this compound displayed a CC50 at 3 days of more than 1 nM.
For the compound `COC(=O)N[C@H](C(=O)N1CCC[C@H]1c1ncc(-c2ccc(-c3ccc(-c4cnc(C5C6CCC(C6)[C@@H]5c5nc(-c6cccnc6)c[nH]5)[nH]4)cc3)cc2)[nH]1)C(C)C` (stereo partly drawn) [AA_242], the EC50 in data set [1] was 10 to 100 nM; in data set [2], 0.101 to 1 nM. This compound also showed a CC50 at 3 days in data set [3] of more than 1 nM.
The corresponding values for `COC(=O)N[C@H](C(=O)N1CCC[C@H]1c1ncc(-c2ccc(-c3ccc(-c4cnc([C@H]5C6CCC(C6)C5C(=O)NCc5cccnc5)[nH]4)cc3)nc2)[nH]1)[C@@H](C)OC` (stereo partly drawn) [AA_242_A] are 10 to 100 nM, 0.101 to 1 nM and more than 1 nM.
Take `COC(=O)N[C@H](C(=O)N1CCC[C@H]1c1ncc(-c2ccc(-c3ccc(-c4cnc([C@@H]5C6CCC(C6)C5C(=O)NCc5cccnc5)[nH]4)cc3)nc2)[nH]1)[C@@H](C)OC` (stereo partly drawn) [AA_242_B]: the EC50 was in the range of 10 to 100 nM in data set [1] and 0.101 to 1 nM in data set [2]. In data set [3], this compound showed a CC50 at 3 days of more than 1 nM.
The corresponding values for `COC(=O)N[C@H](C(=O)N1CCC[C@H]1c1ncc(-c2ccc(-c3ccc(-c4cnc([C@H]5C6CCC(C6)[C@@H]5C(=O)NC(CO)c5ccccn5)[nH]4)cc3)cc2)[nH]1)C(C)C` (stereo partly drawn) [AA_243_A] are 10 to 100 nM, 0.001 to 0.1 nM and more than 1 nM.
As to `COC(=O)N[C@H](C(=O)N1CCC[C@H]1c1ncc(-c2ccc(-c3ccc(-c4cnc([C@@H]5C6CCC(C6)[C@H]5C(=O)NC(CO)c5ccccn5)[nH]4)cc3)cc2)[nH]1)C(C)C` (stereo partly drawn) [AA_243_B], the EC50 was 0.101 to 1 nM in data set [1] and 0.001 to 0.1 nM in data set [2]. In data set [3], this compound came in with a CC50 at 3 days of more than 1 nM.
